“Also recorded” adds a separate entry of the source.

For assay [1], the system named is NKX2-1-negative lung adenocarcinoma organoid strains (KOR189, KOR134). Put plainly: Growth of NKX2-1-negative lung adenocarcinoma organoids cultured with C59 (organoid area, micrographs). In kind it is cell-based, human. An excerpt: Porcupine (PORCN) is an acyl transferase localized to the endoplasmic reticulum which performs palmitoylation of Wnt protein. In this experimental example, the therapeutic effect of NKX2-1-negative lung adenocarcinoma was examined using C59 (CAS No. 1243243-89-1), a Porcupine inhibitor.
In addition, the number in the upper left corner of each image indicates the percentage of an area occupied by organoids cultured under each condition when an area occupied by organoids cultured in the absence of Wnt-3A is 1.

Assay [2] deals with Wnt target genes LGR5 and AXIN2. Description: Quantitative RT-PCR of Wnt target genes LGR5 and AXIN2 in organoids cultured with C59. The assay is classed as cell-based, human. The text has this:
In FIG. 10, the relative values of the expression levels of each gene with respect to the expression level of the GAPDH gene are shown as relative values, with the expression level in the absence of Wnt-3A (−Wnt) set to 1.

In assay [3] the test system is Wnt-dependent (NKX2-1 negative) lung adenocarcinoma organoids, KOR80 and KOR97. Description: Tumor area of GFP-labeled lung adenocarcinoma organoids transplanted under the renal capsule of immunodeficient mice. In kind it is in vivo. The following applies: 50 mg/kg C59 orally twice a day, 10 days after transplantation and day 30 to 40; kidneys excised day 40; versus vehicle. An excerpt:
C59 (CAS No. 1243243-89-1) was used to examine the therapeutic effect of NKX2-1-negative lung adenocarcinoma in vivo.
FIG. 11 is a schematic view showing a schedule of this experiment. GFP-labeled lung adenocarcinoma organoids were transplanted under the renal capsule of immunodeficient mice. As the lung adenocarcinoma organoids, Wnt-dependent (NKX2-1 negative) lung adenocarcinoma organoids, KOR80 and KOR97, and Wnt-independent (NKX2-1-positive) lung adenocarcinoma organoids, KOR20 and KOR98, were used.
For 10 days after transplantation and from day 30 to day 40 after transplantation, 50 mg/kg of C59 or vehicle was administered orally twice a day. Subsequently, the mice were euthanized on day 40 after transplantation, and their kidneys were excised and observed. The tumor area was measured as the area of a GFP-positive region.
In addition, “vehicle” indicates the result of a control given vehicle, and “C59” indicates the result obtained by administering C59. In addition, in FIG. 13, “*” indicates a significant difference at p<0.05, “**” indicates a significant difference at p<0.01, and “N.S.” indicates no significant difference.

[4] abbreviates: presence of Wnt-3A and C59 (+Wnt+C59).

Consider `Cc1cc(-c2ccc(CC(=O)Nc3ccc(-c4cccnc4)cc3)cc2)ccn1` [C59], for which, in assay [1] (absence of Wnt-3A, presence of C59 (-Wnt+C59), KOR189, KOR134), the “growth of NKX2-1-negative lung adenocarcinoma organoids” value is “growth inhibition; also recorded: inhibited the growth”. Moreover, the “growth of NKX2-1-negative lung adenocarcinoma organoids after addition of exogenous Wnt-3A to C59 treatment” value in assay [1] (setting [4]) was “counteracted the effect of the C59 treatment”. Moreover, the “expression levels of Wnt target genes (LGR5, AXIN2)” value in assay [2] (-Wnt+C59 relative to -Wnt, normalised to GAPDH, KOR189, KOR134, KOR97) was “reduced the expression levels”. The “expression levels of Wnt target genes after addition of exogenous Wnt-3A to C59 treatment” value in assay [2] (setting [4]) is on record as “restoring the expression levels”. In addition, in assay [3], the “tumor area (GFP-positive region)” value is recorded as “significantly reduced the tumor area”.
